Tests used:
[1] = system: skin of pigs' ears; assay: Ex vivo penetration of composition into skin of pigs' ears (fluorescent marker histology); format: in vitro ADME; settings: Nile red marker; pig ear skin, 20 hours at 32° C.
Procedure: The distribution of nano-elements of the present compositions in various skin layers was tested ex vivo by applying core-shell and core-multi-shells (including a second shell forming active agent) nano-elements onto the skin of pigs' ears, the cores of the tested compositions including a fluorescent dye (Nile red) allowing histological monitoring.
The following test and control compositions were prepared and used as set in Table 9.
Tested compositions (2) and (3) were prepared by adding 2 mg of Nile red fluorescent marker during the preparation of the CSSC/fatty amine premix, as described in Example 6. All tested compositions were stored in closed containers at room temperature until they were used.
The compositions were tested on three freshly harvested pig ears, collected on the same day, and kept fresh and cooled till use. The ears were washed with excess saline solution and wiped dry. They were then immobilized for the duration of the study by taping them onto a glass surface, their inner side facing down. Each ear was marked on its outer side with 6 circles having a diameter of about 1 cm. […]
The above tissue sections were evaluated by an expert for the presence and intensity of the marker using a fluorescence microscope at objective magnification of ×10 and ×20.

[2] = Zeta potential measurement (Malvern Zetasizer Nano ZS); format: physicochemical; settings: 0.1 g dispersed in 9.9 g of distilled water
Procedure: • Oven: DFO-240, by MRC, Israel • Thermo-rheometer: Thermo Scientific (Germany) Haake Mars III, with a C20/1° spindle, a gap of 0.052 mm, and a shear rate of 10 sec^−1 • Sonicator: VCX 750, by Sonics & Materials, USA • Dynamic Light Scattering and Zeta Potential measurement: Malvern Zetasizer Nano ZS, Malvern Instruments Ltd., UK • Conductivity meter: Eutech CON 700 by Thermo Fisher Scientific, USA • CryoTEM: Talos 200C by Thermo Fisher Scientific, USA, with a Lacey grid • Fluorescence microscope: BX60 microscope, equipped with a digital camera model DP73, by Olympus, Japan
8 g of double distilled water were placed in a 20 ml glass vial. 2 g of the nano-dispersion ND1 obtained in Example 2 were added, and the contents of the vial were shaken by hand for about 10 seconds until a homogeneous mixture was obtained (referred to as charged ND1 or cND1). Zeta potential of the mixture was measured by Malvern Zetasizer Nano ZS and found to be −14.7 mV. Unless otherwise stated, all measurements made with this instrument (e.g., zeta potential and particle size distribution) were performed on samples diluted 1:100 in double distilled water. All pH measurements reported in this and following examples were made at least using a pH test strip adapted to the pH range of relevance, and confirmed in some cases by using a suitable pH meter.

Compound	penetration into skin layers (fluorescence microscopy) [1]	Zeta potential of active agent alone [2]
CCN(CC)c1ccc2nc3c4ccccc4c(=O)cc-3oc2c1 [Nile red, 9-(diethylamino)-5H-benzo[a]phenoxazin-5-one]	No penetration of the fluorescent marker was observed	–
Sodium hyaluronate [LMW HA]	–	−17 mV

— patent US20250144039A1, “COMPOSITIONS COMPRISING SURFACE MODIFIED GLOBULAR NANO-PARTICLES” (LANDA LABS (2012) LTD., priority 2022, published 2025)
